Test results: PubChem BioAssay AID328 (DTP/NCI, 2004)
“And” between values parts separate entries of the source, which are not always exact repeats. Equal values may be shown once. Toxic doses and inconclusive results are not listed.

Tested on: BDF1 mice, P388 leukemia ip, median survival T/C
Assay: NCI In Vivo Anticancer Drug Screen. Data for tumor model P388 Leukemia (intraperitoneal) in B6D2F1 (BDF1) mice
Conditions: endpoint: median survival time, higher = longer survival
How it was run: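 In tumour-bearing mice, survival after compound treatment is set against the vehicle group and given as a quotient.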

[1] = dose: 100.0 mg/kg/injection, schedule: Q01DX009 (ip), vehicle: Klucel (hydroxypropylcellulose) (HPC)
[2] = dose: 100.0 mg/kg/injection, schedule: Q04DX003 (ip), vehicle: Klucel (hydroxypropylcellulose) (HPC)
[3] = dose: 200.0 mg/kg/injection, schedule: Q01DX009 (ip), vehicle: Klucel (hydroxypropylcellulose) (HPC)
[4] = dose: 200.0 mg/kg/injection, schedule: Q04DX003 (ip), vehicle: Klucel (hydroxypropylcellulose) (HPC)
[5] = dose: 400.0 mg/kg/injection, schedule: Q04DX003 (ip), vehicle: Klucel (hydroxypropylcellulose) (HPC)
[6] = dose: 200.0 mg/kg/injection, schedule: Q04DX003 (ip), vehicle: saline with Tween-80
[7] = dose: 400.0 mg/kg/injection, schedule: Q04DX003 (ip), vehicle: saline with Tween-80

`CCOC(=O)c1cc[nH]c1CC(=O)NC` was tested, and the T/C (dose: 200.0 mg/kg/injection, schedule: Q01DX001 (ip), vehicle: saline with Tween-80) was 112 % of control and the T/C (dose: 400.0 mg/kg/injection, schedule: Q01DX001 (ip), vehicle: saline with Tween-80) was 112 % of control.
For `CC(=O)C1COC(O)C1C` (stereo not drawn), the T/C (dose: 0.63 mg/kg/injection, schedule: Q01DX010 (ip), vehicle: saline) was 95 % of control, the T/C (dose: 1.25 mg/kg/injection, schedule: Q01DX009 (ip), vehicle: saline) was 115 % of control and 103 % of control and the T/C (dose: 1.25 mg/kg/injection, schedule: Q01DX010 (ip), vehicle: saline) was 100 % of control. The T/C (dose: 2.5 mg/kg/injection, schedule: Q01DX010 (ip), vehicle: saline) was 116 % of control.
For `O=S(=O)(N=C1C(Cl)=C(Cl)C(=NS(=O)(=O)c2ccccc2)C(Cl)=C1Cl)c1ccccc1`, the T/C [1] was 104 % of control, the T/C [2] was 100 % of control and the T/C [3] was 86 % of control. For the same molecule, the T/C [4] was 100 % of control, the T/C (dose: 400.0 mg/kg/injection, schedule: Q01DX009 (ip), vehicle: Klucel (hydroxypropylcellulose) (HPC)) was 100 % of control and the T/C [5] was 100 % of control.
With `CC(=O)OC1(C)CC(C)C(O)C(C(O)CC2CC(=O)NC(=O)C2)C1` (stereo not drawn) the T/C (dose: 0.5 mg/kg/injection, schedule: Q01DX010 (ip), vehicle: water) was 120 % of control, the T/C (dose: 2.0 mg/kg/injection, schedule: Q01DX010 (ip), vehicle: water) was 150 % of control and 160 % of control and the T/C (dose: 3.0 mg/kg/injection, schedule: Q01DX010 (ip), vehicle: water) was 190 % of control. For the same molecule, the T/C (dose: 4.0 mg/kg/injection, schedule: Q01DX010 (ip), vehicle: water) was 90 % of control and 110 % of control.
`CC(=O)N1CCCC1=O` was tested, and the T/C [1] was 95 % of control, the T/C [2] was 100 % of control and the T/C [3] was 86 % of control. For the same molecule, the T/C [4] was 100 % of control and the T/C [5] was 100 % of control.
`COc1ccccc1NC(=O)Oc1c(C(C)C)cccc1C(C)C` was tested, and the T/C [2] was 95 % of control, the T/C [4] was 87 % of control and the T/C [5] was 100 % of control.
For `COC(=O)CCCNC1CCCCC1`, the T/C (dose: 50.0 mg/kg/injection, schedule: Q01DX001 (ip), vehicle: saline) was 107 % of control, the T/C (dose: 100.0 mg/kg/injection, schedule: Q01DX001 (ip), vehicle: saline) was 114 % of control and the T/C (dose: 200.0 mg/kg/injection, schedule: Q01DX001 (ip), vehicle: saline) was 102 % of control.
With `Cc1ncc([N+](=O)[O-])n1CCn1nnc2c1CCCC2` the T/C [6] was 210 % of control and the T/C [7] was 114 % of control.
For `CC(C)C(=O)OCC1OC(n2cnc3c(=S)nc[nH]c32)C(OC(=O)C(C)C)C1OC(=O)C(C)C` (stereo not drawn), the T/C (dose: 88.0 mg/kg/injection, schedule: Q01DX009 (ip), vehicle: saline with Tween-80) was 104 % of control, the T/C (dose: 100.0 mg/kg/injection, schedule: Q01DX009 (ip), vehicle: saline with Tween-80) was 118 % of control and the T/C (dose: 133.0 mg/kg/injection, schedule: Q01DX009 (ip), vehicle: saline with Tween-80) was 95 % of control. For the same molecule, the T/C (dose: 200.0 mg/kg/injection, schedule: Q01DX009 (ip), vehicle: saline with Tween-80) was 100 % of control, the T/C (dose: 300.0 mg/kg/injection, schedule: Q01DX009 (ip), vehicle: saline with Tween-80) was 100 % of control and the T/C (dose: 400.0 mg/kg/injection, schedule: Q01DX009 (ip), vehicle: saline with Tween-80) was 100 % of control.
`COC1=C(N)C(=O)c2ncccc2C1=O` was tested, and the T/C (dose: 4.0 mg/kg/injection, schedule: Q01DX010 (ip), vehicle: acetone) was 113 % of control and the T/C (dose: 8.0 mg/kg/injection, schedule: Q01DX010 (ip), vehicle: acetone) was 109 % of control.
For `Cc1ccc(NC(=S)NNC(=S)NNc2ccccc2)cc1C`, the T/C [1] was 115 % of control and the T/C [3] was 120 % of control.
`COc1ccc(S(=O)(=O)NCCC#N)cc1NC(C)=O` was tested, and the T/C (dose: 100.0 mg/kg/injection, schedule: Q01DX001 (ip), vehicle: saline sonified) was 100 % of control, the T/C (dose: 200.0 mg/kg/injection, schedule: Q01DX001 (ip), vehicle: saline sonified) was 100 % of control and the T/C (dose: 400.0 mg/kg/injection, schedule: Q01DX001 (ip), vehicle: saline sonified) was 100 % of control.
In the case of `Cc1ccc2[nH]c(=S)[nH]c(=S)c2c1`, the T/C (dose: 100.0 mg/kg/injection, schedule: Q04DX003 (ip), vehicle: saline with Tween-80) was 108 % of control, the T/C [6] was 95 % of control and the T/C [7] was 108 % of control.
In the case of `c1ccc(OCC2CO2)c(OCC2CO2)c1` (stereo not drawn), the T/C (dose: 60.0 mg/kg/injection, schedule: Q01DX005 (ip), vehicle: saline with Tween-80) was 157 % of control, the T/C (dose: 120.0 mg/kg/injection, schedule: Q01DX005 (ip), vehicle: saline with Tween-80) was 185 % of control and the T/C (dose: 240.0 mg/kg/injection, schedule: Q01DX005 (ip), vehicle: saline with Tween-80) was 171 % of control.
